Assay results published in article PMC7468108 (Communications Biology, 2020).

What was measured:
hIAPP [1] = molecular target: T1, hIAPP (Homo sapiens, UniProt P10997); experiment: Congo red birefringence of hIAPP fibrils formed with the tested molecules; conditions: 5-fold molar excess of compound
T1 construct: hIAPP is a 37-amino acid neuroendocrine peptide hormone; purchased Peptide 2.0 (USA)
T1 sequence (P10997 34-70 limits assumed): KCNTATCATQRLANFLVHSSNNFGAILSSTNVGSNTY
Protocol: (§1) When hIAPP was incubated with 5-fold molar excess of the hybrid molecules, no typical fibrillar assemblies were observed, rather some amorphous aggregates of different sizes were detected (Fig. 4, upper panel).

hIAPP [2] = molecular target: T1, hIAPP; experiment: TEM of hIAPP fibrils formed with the tested molecules; conditions: 5-fold molar excess of compound
Protocol: as §1
Samples (10 µL) were placed for 2 min on 400-mesh copper grids covered with carbon-stabilized Formvar film (Electron Microscopy Sciences (EMS), Hatfield, PA). Excess fluid was removed, and grids were negatively stained with 2% uranyl acetate solution (10 µL) for 2 min. After excess fluid removal, the samples were visualized using a JEM-1400 TEM (JEOL), operated at 80 kV.

[3] = molecular target: T2, pre-formed fibrils of Aβ42 (Homo sapiens, UniProt P05067); experiment: CD spectroscopy of pre-formed Aβ42 fibrils with the tested molecules; conditions: Aβ42 (10 µM) : molecule 1:5
T2 construct: purchased rPeptide (USA)
T2 sequence (P05067 672-713 limits assumed): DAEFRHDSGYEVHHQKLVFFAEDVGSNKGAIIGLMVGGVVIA
Protocol: For efficient treatment of proteinopathies it may be advantageous to disassemble amyloid aggregates/fibrils which are usually already present at the time of diagnosis[75]–[77]. […] Then, various doses of the hybrid molecules were added to the pre-formed fibrils and the mixtures were incubated for additional 10 h. The process of disaggregation was monitored by ThT-binding assay, CD spectroscopy, TEM and Congo red staining (Fig. 5).
The blank was subtracted from the acquired CD spectra. For the CD study in the presence of the tryptophan-galacosylamine molecules, the spectra of hybrid molecules were also recorded separately and subtracted from the respective sample spectra. The normalized data were plotted using Origin pro 2015 software.

[4] = XTT assay, cytotoxicity of the hybrid molecules towards HEK-293; assay type: cell-based; conditions: human, HEK-293 cells
Protocol: To this end, we first tested whether the hybrid molecules carried any cytotoxicity themselves. […] No considerable toxicity (≥95% viability) was caused by the hybrid molecules towards either cell line, even at the highest concentration of 250 µM (Fig. 8).
The SH-SY5Y and HEK-293 cell lines (2 × 10^5 cells/mL) were cultured in 96-well tissue microplates (100 µL/well) and allowed to adhere overnight at 37 °C. The conjugate molecules were dissolved in DMEM:nutrient mixture F12 (Ham’s) (1:1) (Biological Industries, Israel) at different concentrations. The negative control was prepared as medium without hybrid molecules and treated in the same manner. 100 µL of medium with or without hybrid molecules were added to each well in triplicate. Following incubation for 24 h at 37 °C, cell viability was evaluated using the 2,3-bis(2-methoxy-4-nitro-5-sulfophenyl)-2H-tetrazolium-5-carboxanilide (XTT) cell proliferation assay kit (Biological Industries, Israel) according to the manufacturer’s instructions. Briefly, 100 µL of activation reagent was added to 5 mL of XTT reagent, followed by the addition of 50 µL of activated-XTT solution to each well. After 2 h incubation at 37 °C, color intensity was measured using an ELISA microplate reader at 450 nm and 630 nm. Results are presented as mean and mean standard error. Each experiment was repeated minimum three times.

What does the source list for `NC(Cc1c[nH]c2ccccc12)C(=O)NC(Cc1c[nH]c2ccccc12)C(=O)O` (stereo not drawn) [WW]?
Congo red birefringence of hIAPP, in words (hIAPP [1]): clear gold-green birefringence; hIAPP fibril morphology (TEM), in words (hIAPP [2]): clearly visible in a more densely packed network; Normalized CD spectra ([3]; wave length 190.00): -73553.54; Normalized CD spectra ([3]; wave length 190.50): -15766.44; Normalized CD spectra ([3]; wave length 191.00): 35958.05; Normalized CD spectra ([3]; wave length 191.50): 81619.94; Normalized CD spectra ([3]; wave length 192.00): 121219.23; Normalized CD spectra ([3]; wave length 192.50): 154755.92; Normalized CD spectra ([3]; wave length 193.00): 182230.00; Normalized CD spectra ([3]; wave length 193.50): 203641.48; Normalized CD spectra ([3]; wave length 194.00): 218990.36; Normalized CD spectra ([3]; wave length 194.50): 228276.63; Normalized CD spectra ([3]; wave length 195.00): 231500.30; Normalized CD spectra ([3]; wave length 195.50): 225800.71; Normalized CD spectra ([3]; wave length 196.00): 212602.53; Normalized CD spectra ([3]; wave length 196.50): 192673.83; Normalized CD spectra ([3]; wave length 197.00): 167389.33; Normalized CD spectra ([3]; wave length 197.50): 138095.62; Normalized CD spectra ([3]; wave length 198.00): 105620.63; Normalized CD spectra ([3]; wave length 198.50): 71268.15; Normalized CD spectra ([3]; wave length 199.00): 34612.79; Normalized CD spectra ([3]; wave length 199.50): -3059.42; Normalized CD spectra ([3]; wave length 200.00): -41012.41; Normalized CD spectra ([3]; wave length 200.50): -77900.86; Normalized CD spectra ([3]; wave length 201.00): -113482.60; Normalized CD spectra ([3]; wave length 201.50): -149046.90; Normalized CD spectra ([3]; wave length 202.00): -184972.48; Normalized CD spectra ([3]; wave length 202.50): -219485.50; Normalized CD spectra ([3]; wave length 203.00): -252839.40; Normalized CD spectra ([3]; wave length 203.50): -284772.39; Normalized CD spectra ([3]; wave length 204.00): -314917.56; Normalized CD spectra ([3]; wave length 204.50): -342821.04; Normalized CD spectra ([3]; wave length 205.00): -369216.74; Normalized CD spectra ([3]; wave length 205.50): -393550.37; Normalized CD spectra ([3]; wave length 206.00): -417348.83; Normalized CD spectra ([3]; wave length 206.50): -438915.06; Normalized CD spectra ([3]; wave length 207.00): -457557.09; Normalized CD spectra ([3]; wave length 207.50): -473195.60; Normalized CD spectra ([3]; wave length 208.00): -486009.60; Normalized CD spectra ([3]; wave length 208.50): -496658.21; Normalized CD spectra ([3]; wave length 209.00): -506978.42; Normalized CD spectra ([3]; wave length 209.50): -515749.12; Normalized CD spectra ([3]; wave length 210.00): -522740.26; Normalized CD spectra ([3]; wave length 210.50): -528398.60; Normalized CD spectra ([3]; wave length 211.00): -534227.02; Normalized CD spectra ([3]; wave length 211.50): -539337.45; Normalized CD spectra ([3]; wave length 212.00): -544717.07; Normalized CD spectra ([3]; wave length 212.50): -549064.94; Normalized CD spectra ([3]; wave length 213.00): -552893.06; Normalized CD spectra ([3]; wave length 232.00): -158822.48; Normalized CD spectra ([3]; wave length 232.50): -145896.86; Normalized CD spectra ([3]; wave length 233.00): -133288.90; Normalized CD spectra ([3]; wave length 233.50): -121276.73; Normalized CD spectra ([3]; wave length 234.00): -108420.01; Normalized CD spectra ([3]; wave length 234.50): -94402.20; Normalized CD spectra ([3]; wave length 235.00): -80851.94; Normalized CD spectra ([3]; wave length 235.50): -67553.80; Normalized CD spectra ([3]; wave length 236.00): -53046.10; Normalized CD spectra ([3]; wave length 236.50): -38359.94; Normalized CD spectra ([3]; wave length 237.00): -24169.94; Normalized CD spectra ([3]; wave length 237.50): -9295.33; Normalized CD spectra ([3]; wave length 238.00): 4979.26; Normalized CD spectra ([3]; wave length 238.50): 18805.26; Normalized CD spectra ([3]; wave length 239.00): 32522.94; Normalized CD spectra ([3]; wave length 239.50): 44912.46; Normalized CD spectra ([3]; wave length 240.00): 56635.42; Normalized CD spectra ([3]; wave length 240.50): 67013.51; Normalized CD spectra ([3]; wave length 241.00): 74841.22; Normalized CD spectra ([3]; wave length 241.50): 81258.78; Normalized CD spectra ([3]; wave length 242.00): 86276.81; Normalized CD spectra ([3]; wave length 242.50): 90384.02; Normalized CD spectra ([3]; wave length 243.00): 92798.03; Normalized CD spectra ([3]; wave length 243.50): 93594.35; Normalized CD spectra ([3]; wave length 244.00): 93999.17; Normalized CD spectra ([3]; wave length 244.50): 92992.13; Normalized CD spectra ([3]; wave length 245.00): 90422.16; Normalized CD spectra ([3]; wave length 245.50): 86663.60; Normalized CD spectra ([3]; wave length 246.00): 82929.71; Normalized CD spectra ([3]; wave length 246.50): 77838.15; Normalized CD spectra ([3]; wave length 247.00): 72115.03; Normalized CD spectra ([3]; wave length 247.50): 67454.01; Normalized CD spectra ([3]; wave length 248.00): 62170.09; Normalized CD spectra ([3]; wave length 248.50): 58159.55; Normalized CD spectra ([3]; wave length 249.00): 54507.86; Normalized CD spectra ([3]; wave length 249.50): 50774.14; Normalized CD spectra ([3]; wave length 250.00): 48265.73; Normalized CD spectra ([3]; wave length 250.50): 46578.32; Normalized CD spectra ([3]; wave length 251.00): 45531.49; Normalized CD spectra ([3]; wave length 251.50): 45968.11; Normalized CD spectra ([3]; wave length 252.00): 46977.38; Normalized CD spectra ([3]; wave length 252.50): 48862.26; Normalized CD spectra ([3]; wave length 253.00): 50826.53; Normalized CD spectra ([3]; wave length 253.50): 52698.23; Normalized CD spectra ([3]; wave length 254.00): 54591.66; Normalized CD spectra ([3]; wave length 254.50): 55574.45; Normalized CD spectra ([3]; wave length 255.00): 55730.02; Normalized CD spectra ([3]; wave length 255.50): 53034.53; Normalized CD spectra ([3]; wave length 256.00): 49400.95; Normalized CD spectra ([3]; wave length 256.50): 44829.26; Normalized CD spectra ([3]; wave length 257.00): 39319.47; Normalized CD spectra ([3]; wave length 257.50): 32871.59; Normalized CD spectra ([3]; wave length 258.00): 25485.60; viability at 24 h, 0.2 µM ([4]; 0.2µM): 93.6%; viability at 24 h, 1 µM ([4]; 1 µM): 98.4%; viability at 24 h, 10 µM ([4]; 10 µM): 94.3%; viability at 24 h, 50 µM ([4]; 50 µM): 84.5%; viability at 24 h, 250 µM ([4]; 250 µM): 83.7%; viability at 24 h, 250 µM ([4]; HEK-293, 250 µM, 24 h): ~83%
